Source: patent US6355799B1, “Substituted benzene compounds, process for their preparation, and herbicidal and defoliant compositions containing them” (ISK Americas Incorporated, priority 1997, dated 2002)

What was measured:
Type in all cases: in vivo
[1] = system: redroot pigweed (Amaranthus retroflexus, AMARE); test: Pre-emerge test, greenhouse herbicide activity screening; settings: rating scale 0-100, 14 days after application
Procedure, shortened: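 Compounds in acetone were track-sprayed at 187 l/ha, 15–1000 g ai/ha, onto sandy loam pots. Pre-emerge seeds were sown one day before spraying, with surface watering afterwards. Post-emerge plants were at the 2–3 leaf stage and sprayed with 0.25% v/v non-ionic surfactant. Injury was rated 0–100 at 14 days.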

[2] = system: upland rice (Oryza sp., var. Tebonnet, RICE); test: Post-emerge test, crop safety; settings: rating scale 0-100 (0 no damage, 100 complete death), 14 days after application
Procedure, shortened: (§1)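 Rating: 0–100 visual injury, 14 DAA. Application: acetone, 187 l/ha, 15–1000 g ai/ha, flat-fan track sprayer with nozzle 40–45 cm above soil or canopy. Post-emerge runs used 0.25% v/v surfactant on 2–3 leaf plants.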

[3] = system: field corn (Zea mays L., var. Dekalb 535, CORN); test: Post-emerge test, crop safety; settings: rating scale 0-100 (0 no damage, 100 complete death), 14 days after application
Procedure, shortened: as §1

[4] = system: lambsquarters (Chenopodium album, CHEAL); test: Pre-emerge test, greenhouse herbicide activity screening; settings: rating scale 0-100, 14 days after application
Procedure, shortened: (§2)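 Compounds in acetone were track-sprayed at 15–1000 g ai/ha: pre-emergence onto soil sown the previous day, then top-watered to incorporate and later bottom-watered; post-emergence onto 2–3 leaf plants with 0.25% v/v surfactant, bottom-watered only. Ratings on a 0–100 phytotoxicity scale were taken at day 14.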

[5] = system: large crabgrass (Digitaria sanguinalis, DIGSA); test: as above; settings: rating scale 0-100, 14 days after application
Procedure, shortened: as §2

[6] = system: johnsongrass (Sorghum halepense, SORHA); test: as above; settings: rating scale 0-100, 14 days after application
Procedure, shortened: as §2

[7] = system: sicklepod (Cassia obtusifolia, CASOB); test: as above; settings: rating scale 0-100, 14 days after application
Procedure, shortened: as §2

[8] = system: ivyleaf morningglory (Ipomoea hederacea, IPOHE); test: as above; settings: rating scale 0-100, 14 days after application
Procedure, shortened: as §2

[9] = system: velvetleaf (Abutilon theophrasti, ABUTH); test: as above; settings: rating scale 0-100, 14 days after application
Procedure, shortened: as §2

[10] = system: common ragweed (Ambrosia artemisizfolia L., AMBEL); test: as above; settings: rating scale 0-100, 14 days after application
Procedure, shortened: as §2

[11] = system: green foxtail (Setaria viridis, SETVI); test: as above; settings: rating scale 0-100, 14 days after application
Procedure, shortened: as §2

[12] = system: barnyardgrass (Echinochloa crus-galli, ECHCG); test: as above; settings: rating scale 0-100, 14 days after application
Procedure, shortened: as §2

[13] = system: lambsquarters (Chenopodium album, CHEAL); test: Post-emerge test, greenhouse herbicide activity screening; settings: rating scale 0-100 (0 no damage, 100 complete death), 14 days after application
Procedure, shortened: (§3)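 Fourteen days after spraying, crop and weed injury was graded visually from 0, no effect, to 100, every plant dead. Test substances were dissolved in acetone and applied at 15–1000 g ai/ha with a flat-fan nozzle. Application was either pre-emergence, one day after sowing, or post-emergence at the 2–3 leaf stage.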

[14] = system: large crabgrass (Digitaria sanguinalis, DIGSA); test: as above; settings: rating scale 0-100 (0 no damage, 100 complete death), 14 days after application
Procedure, shortened: as §3

[15] = system: johnsongrass (Sorghum halepense, SORHA); test: as above; settings: rating scale 0-100 (0 no damage, 100 complete death), 14 days after application
Procedure, shortened: as §3

[16] = system: sicklepod (Cassia obtusifolia, CASOB); test: as above; settings: rating scale 0-100 (0 no damage, 100 complete death), 14 days after application
Procedure, shortened: as §3

[17] = system: ivyleaf morningglory (Ipomoea hederacea, IPOHE); test: as above; settings: rating scale 0-100 (0 no damage, 100 complete death), 14 days after application
Procedure, shortened: as §3

[18] = system: velvetleaf (Abutilon theophrasti, ABUTH); test: as above; settings: rating scale 0-100 (0 no damage, 100 complete death), 14 days after application
Procedure, shortened: as §3

[19] = system: green foxtail (Setaria viridis, SETVI); test: as above; settings: rating scale 0-100 (0 no damage, 100 complete death), 14 days after application
Procedure, shortened: as §3

[20] = system: barnyardgrass (Echinochloa crus-galli, ECHCG); test: as above; settings: rating scale 0-100 (0 no damage, 100 complete death), 14 days after application
Procedure, shortened: as §3

[21] = system: redroot pigweed (Amaranthus retroflexus, AMARE); test: as above; settings: rating scale 0-100 (0 no damage, 100 complete death), 14 days after application
Procedure, shortened: as §3

[22] = system: upland rice (Oryza sp., var. Tebonnet, RICE); test: Pre-emerge test, crop safety; settings: rating scale 0-100, 14 days after application
Procedure, shortened: as §3

[23] = system: field corn (Zea mays L., var. Dekalb 535, CORN); test: Pre-emerge test, crop safety; settings: rating scale 0-100, 14 days after application
Procedure, shortened: as §3

C=COC(=O)C(C)(Cl)Cc1c(OC)c(Cl)cc(F)c1-n1c(=O)cc(C(F)(F)F)n(C)c1=O (stereo not shown) [14-42]
Pre-emerge herbicidal activity, phytotoxicity rating AMARE ([1]; 63 g ai/ha): 95
Pre-emerge herbicidal activity, phytotoxicity rating AMARE ([1]; 250 g ai/ha): 100
Post-emerge phytotoxicity rating RICE (crop damage) ([2]; Rate 63 g ai/ha): 95
Post-emerge phytotoxicity rating RICE (crop damage) ([2]; Rate 250 g ai/ha): 100
Post-emerge phytotoxicity rating CORN (crop damage) ([3]; Rate 63 g ai/ha): 100
Post-emerge phytotoxicity rating CORN (crop damage) ([3]; Rate 250 g ai/ha): 100
Pre-emerge herbicidal activity, phytotoxicity rating CHEAL ([4]; 63 g ai/ha): 90
Pre-emerge herbicidal activity, phytotoxicity rating CHEAL ([4]; 250 g ai/ha): 100
Pre-emerge herbicidal activity, phytotoxicity rating DIGSA ([5]; 63 g ai/ha): 0
Pre-emerge herbicidal activity, phytotoxicity rating DIGSA ([5]; 250 g ai/ha): 50
Pre-emerge herbicidal activity, phytotoxicity rating SORHA ([6]; 63 g ai/ha): 0
Pre-emerge herbicidal activity, phytotoxicity rating SORHA ([6]; 250 g ai/ha): 0
Pre-emerge herbicidal activity, phytotoxicity rating CASOB ([7]; 63 g ai/ha): 0
Pre-emerge herbicidal activity, phytotoxicity rating CASOB ([7]; 250 g ai/ha): 0
Pre-emerge herbicidal activity, phytotoxicity rating IPOHE ([8]; 63 g ai/ha): 0
Pre-emerge herbicidal activity, phytotoxicity rating IPOHE ([8]; 250 g ai/ha): 30
Pre-emerge herbicidal activity, phytotoxicity rating ABUTH ([9]; 63 g ai/ha): 80
Pre-emerge herbicidal activity, phytotoxicity rating ABUTH ([9]; 250 g ai/ha): 95
Pre-emerge herbicidal activity, phytotoxicity rating AMBEL ([10]; 63 g ai/ha): 0
Pre-emerge herbicidal activity, phytotoxicity rating AMBEL ([10]; 250 g ai/ha): 100
Pre-emerge herbicidal activity, phytotoxicity rating SETVI ([11]; 63 g ai/ha): 30
Pre-emerge herbicidal activity, phytotoxicity rating SETVI ([11]; 250 g ai/ha): 80
Pre-emerge herbicidal activity, phytotoxicity rating ECHCG ([12]; 63 g ai/ha): 0
Pre-emerge herbicidal activity, phytotoxicity rating ECHCG ([12]; 250 g ai/ha): 20
Post-emerge Herbicidal Activity, phytotoxicity rating CHEAL ([13]; Rate 63 g ai/ha): 100
Post-emerge Herbicidal Activity, phytotoxicity rating CHEAL ([13]; Rate 250 g ai/ha): 100
Post-emerge Herbicidal Activity, phytotoxicity rating DIGSA ([14]; Rate 63 g ai/ha): 95
Post-emerge Herbicidal Activity, phytotoxicity rating DIGSA ([14]; Rate 250 g ai/ha): 100
Post-emerge Herbicidal Activity, phytotoxicity rating SORHA ([15]; Rate 63 g ai/ha): 60
Post-emerge Herbicidal Activity, phytotoxicity rating SORHA ([15]; Rate 250 g ai/ha): 95
Post-emerge Herbicidal Activity, phytotoxicity rating CASOB ([16]; Rate 63 g ai/ha): 60
Post-emerge Herbicidal Activity, phytotoxicity rating CASOB ([16]; Rate 250 g ai/ha): 90
Post-emerge Herbicidal Activity, phytotoxicity rating IPOHE ([17]; Rate 63 g ai/ha): 100
Post-emerge Herbicidal Activity, phytotoxicity rating IPOHE ([17]; Rate 250 g ai/ha): 100
Post-emerge Herbicidal Activity, phytotoxicity rating ABUTH ([18]; Rate 63 g ai/ha): 100
Post-emerge Herbicidal Activity, phytotoxicity rating ABUTH ([18]; Rate 250 g ai/ha): 100
Post-emerge Herbicidal Activity, phytotoxicity rating SETVI ([19]; Rate 63 g ai/ha): 100
Post-emerge Herbicidal Activity, phytotoxicity rating SETVI ([19]; Rate 250 g ai/ha): 100
Post-emerge Herbicidal Activity, phytotoxicity rating ECHCG ([20]; Rate 63 g ai/ha): 100
Post-emerge Herbicidal Activity, phytotoxicity rating ECHCG ([20]; Rate 250 g ai/ha): 100
Post-emerge Herbicidal Activity, phytotoxicity rating AMARE ([21]; Rate 63 g ai/ha): 100
Post-emerge Herbicidal Activity, phytotoxicity rating AMARE ([21]; Rate 250 g ai/ha): 100
Pre-emerge phytotoxicity rating, crop damage RICE ([22]; 63 g ai/ha): 10
Pre-emerge phytotoxicity rating, crop damage RICE ([22]; 250 g ai/ha): 30
Pre-emerge phytotoxicity rating, crop damage CORN ([23]; 63 g ai/ha): 0
Pre-emerge phytotoxicity rating, crop damage CORN ([23]; 250 g ai/ha): 20
